Experimental findings from ChEMBL document CHEMBL1201862, “PubChem BioAssay data set” (2004) are described below.

One data set concerns the target Cytochrome P450 2C19 (Homo sapiens, UniProt P33261). As to the kind of experiment: Cytochrome panel assay with activity outcomes. Panel member name: p450-cyp2c19 Compounds with AC50 equal or less than 10 uM are considered active. Type of data set: functional.
The target in data set [1] is T1, Cytochrome P450 3A4 (Homo sapiens, UniProt P08684).
Another data set deals with Cytochrome P450 2C9 (Homo sapiens, UniProt P11712).
The next data set deals with Cytochrome P450 2D6 (Homo sapiens, UniProt P10635).
Data set [2] addresses Photoreceptor-specific nuclear receptor (Homo sapiens, UniProt Q9Y5X4). In kind it is functional, cell-based.
A short description of data set [3]: decrease of insulin promoter-GFP reporter – imaging, high-content screening, mouse beta cells (AID 1628). In kind it is functional. Particulars: MIN6.
Data set [4] is described as follows: MIN6 cell viability loss – mouse insulinoma, cytotoxicity control, dose response (AID 2122).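 Further: confirmatory high-throughput counterscreen run to flag cytotoxic compounds.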 In kind it is functional.
For data set [5], the target named is T2, Lysine-specific demethylase 4A (Homo sapiens, UniProt O75164).
T2 sequence (O75164 whole entry): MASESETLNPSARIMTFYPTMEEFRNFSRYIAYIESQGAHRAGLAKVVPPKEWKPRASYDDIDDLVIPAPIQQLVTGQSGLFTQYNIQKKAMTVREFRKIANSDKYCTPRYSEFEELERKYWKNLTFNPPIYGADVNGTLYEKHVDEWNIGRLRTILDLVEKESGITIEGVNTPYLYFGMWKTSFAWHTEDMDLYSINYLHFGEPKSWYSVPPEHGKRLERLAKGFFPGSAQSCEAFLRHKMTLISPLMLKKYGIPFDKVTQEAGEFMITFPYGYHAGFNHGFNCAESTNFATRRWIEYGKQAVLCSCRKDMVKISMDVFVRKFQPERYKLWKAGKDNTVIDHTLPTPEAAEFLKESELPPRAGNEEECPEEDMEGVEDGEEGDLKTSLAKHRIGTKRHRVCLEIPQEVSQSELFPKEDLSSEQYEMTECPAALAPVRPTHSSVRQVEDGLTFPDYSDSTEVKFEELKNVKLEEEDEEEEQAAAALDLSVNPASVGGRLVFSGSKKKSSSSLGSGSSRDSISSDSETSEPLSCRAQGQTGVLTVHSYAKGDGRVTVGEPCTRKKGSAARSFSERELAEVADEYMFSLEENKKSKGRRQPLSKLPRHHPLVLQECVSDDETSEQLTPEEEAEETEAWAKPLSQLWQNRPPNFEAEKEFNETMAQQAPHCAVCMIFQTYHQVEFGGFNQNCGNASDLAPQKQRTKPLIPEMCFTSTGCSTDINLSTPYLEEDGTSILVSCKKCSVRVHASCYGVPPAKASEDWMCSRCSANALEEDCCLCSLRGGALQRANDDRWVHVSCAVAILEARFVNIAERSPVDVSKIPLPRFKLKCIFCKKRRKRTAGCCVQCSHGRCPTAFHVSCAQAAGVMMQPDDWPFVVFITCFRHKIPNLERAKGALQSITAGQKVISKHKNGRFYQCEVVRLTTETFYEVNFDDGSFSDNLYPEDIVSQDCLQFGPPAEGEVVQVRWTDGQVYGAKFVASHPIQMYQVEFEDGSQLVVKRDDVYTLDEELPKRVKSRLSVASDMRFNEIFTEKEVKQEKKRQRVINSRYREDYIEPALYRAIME
As to the kind of experiment: inhibition of JMJD2A H3K9me3 demethylation – biochemical, DELFIA europium, cherry-picked samples, selectivity assay for GASC-1 inhibitor project, dose response (AID 488840).

Another data set has as its system INS1. As to the kind of experiment: INS-1E survival protection against cytokine death – cell-based, luminescence, retest, dose response (AID 449756).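 Further: cell death triggered by IL-1 beta plus TNF-alpha plus IFN-gamma mixture; protective hits raise ATP signal compared with cytokine alone wells.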 Type of data set: functional. Particulars: Rattus norvegicus.
For data set [6], the target named is T3, Tyrosine-protein phosphatase non-receptor type 22 (Homo sapiens, UniProt Q9Y2R2).
T3 sequence (Q9Y2R2 whole entry): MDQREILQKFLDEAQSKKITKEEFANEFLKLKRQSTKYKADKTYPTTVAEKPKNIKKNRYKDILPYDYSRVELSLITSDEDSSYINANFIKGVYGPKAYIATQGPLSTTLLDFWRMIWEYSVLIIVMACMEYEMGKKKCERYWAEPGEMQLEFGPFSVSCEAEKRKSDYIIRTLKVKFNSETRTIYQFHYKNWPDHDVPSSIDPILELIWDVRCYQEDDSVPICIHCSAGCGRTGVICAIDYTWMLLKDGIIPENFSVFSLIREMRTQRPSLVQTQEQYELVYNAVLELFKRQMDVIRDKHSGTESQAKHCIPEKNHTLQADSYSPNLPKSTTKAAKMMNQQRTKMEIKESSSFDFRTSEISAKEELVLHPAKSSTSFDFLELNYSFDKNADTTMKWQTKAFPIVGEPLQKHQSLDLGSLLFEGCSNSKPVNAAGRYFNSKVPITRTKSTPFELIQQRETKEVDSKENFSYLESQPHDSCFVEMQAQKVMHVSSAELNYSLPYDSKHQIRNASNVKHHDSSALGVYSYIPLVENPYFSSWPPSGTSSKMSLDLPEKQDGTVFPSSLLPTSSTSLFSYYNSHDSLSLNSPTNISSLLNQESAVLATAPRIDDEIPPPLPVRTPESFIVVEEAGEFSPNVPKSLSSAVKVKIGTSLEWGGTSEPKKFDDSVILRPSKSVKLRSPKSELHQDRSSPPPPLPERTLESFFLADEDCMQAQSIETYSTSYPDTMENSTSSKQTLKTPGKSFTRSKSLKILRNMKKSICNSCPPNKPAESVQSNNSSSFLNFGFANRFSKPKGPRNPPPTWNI
As to the kind of experiment: SAR LYP1 Fluorescent Assay using OMFP substrate for In Vitro dose response studies - Set 2. [Related pubchem assays (depositor defined):AID1779, AID1784, AID2140, AID449726, AID488869]. Type of data set: functional.

The target of data set [7] is T3, Tyrosine-protein phosphatase non-receptor type 22. As to the kind of experiment: inhibition of lymphoid tyrosine phosphatase LYP – biochemical, pCAP fluorogenic substrate, fluorescence, set 3, SAR follow-up (AID 449727). In kind it is functional.
For data set [8], the target named is T4, Tyrosine-protein phosphatase non-receptor type 12 (Homo sapiens, UniProt Q05209).
T4 sequence (Q05209 whole entry): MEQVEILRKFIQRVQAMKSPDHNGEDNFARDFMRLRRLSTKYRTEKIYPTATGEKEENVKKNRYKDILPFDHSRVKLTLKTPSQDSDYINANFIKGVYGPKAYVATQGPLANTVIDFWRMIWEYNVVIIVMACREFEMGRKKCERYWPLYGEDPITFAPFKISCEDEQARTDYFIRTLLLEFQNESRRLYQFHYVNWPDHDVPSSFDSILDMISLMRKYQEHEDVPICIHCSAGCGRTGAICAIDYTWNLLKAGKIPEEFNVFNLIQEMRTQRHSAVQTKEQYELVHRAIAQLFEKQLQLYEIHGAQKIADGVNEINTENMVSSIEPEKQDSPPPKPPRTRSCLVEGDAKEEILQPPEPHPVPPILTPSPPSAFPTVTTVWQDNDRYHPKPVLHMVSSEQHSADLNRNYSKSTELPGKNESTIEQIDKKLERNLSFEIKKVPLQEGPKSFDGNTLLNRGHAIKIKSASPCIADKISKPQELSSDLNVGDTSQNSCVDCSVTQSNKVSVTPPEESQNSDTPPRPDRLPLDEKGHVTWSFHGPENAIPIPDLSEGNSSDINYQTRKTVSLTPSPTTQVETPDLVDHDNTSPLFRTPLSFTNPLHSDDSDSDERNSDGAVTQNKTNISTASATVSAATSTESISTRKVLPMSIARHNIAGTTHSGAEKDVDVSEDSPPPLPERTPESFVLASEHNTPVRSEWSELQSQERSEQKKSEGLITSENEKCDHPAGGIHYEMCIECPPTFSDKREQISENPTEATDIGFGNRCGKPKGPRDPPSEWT
Put plainly: SAR Selectivity Analysis of small molecule inhibitors of PEST using pCAP in a fluorescence assay. [Related pubchem assays (depositor defined):AID1779, AID1784, AID2135]. In kind it is functional.

In data set [9] the target is T5, Tyrosine-protein phosphatase non-receptor type 7 (Homo sapiens, UniProt P35236).
T5 sequence (P35236 whole entry): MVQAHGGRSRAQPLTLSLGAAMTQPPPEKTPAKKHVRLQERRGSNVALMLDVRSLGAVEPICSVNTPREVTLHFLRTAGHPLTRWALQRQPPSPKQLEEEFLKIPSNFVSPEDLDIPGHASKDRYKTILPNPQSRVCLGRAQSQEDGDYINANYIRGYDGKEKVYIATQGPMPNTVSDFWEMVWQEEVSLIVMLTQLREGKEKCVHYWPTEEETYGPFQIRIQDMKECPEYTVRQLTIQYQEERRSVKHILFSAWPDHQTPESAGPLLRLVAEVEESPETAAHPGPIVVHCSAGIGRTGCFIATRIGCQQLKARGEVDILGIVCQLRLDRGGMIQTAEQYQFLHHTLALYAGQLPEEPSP
Put plainly: inhibition of hematopoietic tyrosine phosphatase HePTP – biochemical, set 2, SAR follow-up (AID 449736). Type of data set: functional.

For data set [10], the target named is T3, Tyrosine-protein phosphatase non-receptor type 22. Put plainly: SAR LYP1 Fluorescent Assay using OMFP substrate for In Vitro dose response studies - Set 3. [Related pubchem assays (depositor defined):AID1779, AID1784, AID2140, AID2686]. Type of data set: functional.
The target is the same in data set [11]. As to the kind of experiment: SAR LYP1 Fluorescent Assay using pCAP substrate for In Vitro dose response studies - Set 2. [Related pubchem assays (depositor defined):AID1779, AID1784, AID2135, AID449727]. Type of data set: functional.
Data set [12] addresses T6, Heat shock factor protein 1 (Mus musculus, UniProt P38532).
T6 sequence (P38532 whole entry): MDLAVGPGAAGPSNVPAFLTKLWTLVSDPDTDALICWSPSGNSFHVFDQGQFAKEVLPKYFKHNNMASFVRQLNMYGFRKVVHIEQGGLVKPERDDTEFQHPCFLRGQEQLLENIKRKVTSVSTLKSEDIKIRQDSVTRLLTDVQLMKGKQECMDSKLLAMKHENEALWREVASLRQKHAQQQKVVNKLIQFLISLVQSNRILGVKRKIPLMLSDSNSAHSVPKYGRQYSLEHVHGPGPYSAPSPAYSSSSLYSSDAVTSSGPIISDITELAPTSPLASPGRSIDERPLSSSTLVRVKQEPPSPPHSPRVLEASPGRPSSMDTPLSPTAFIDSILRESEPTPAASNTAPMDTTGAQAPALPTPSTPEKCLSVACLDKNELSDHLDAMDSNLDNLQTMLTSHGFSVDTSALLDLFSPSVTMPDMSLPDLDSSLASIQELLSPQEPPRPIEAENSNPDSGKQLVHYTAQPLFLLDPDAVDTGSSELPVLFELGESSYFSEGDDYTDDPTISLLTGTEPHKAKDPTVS
Put plainly: decrease of HSF1-responsive luciferase luminescence – cell-based, NIH3T3, dose retest, confirmation (AID 2382).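 Further: NIH3T3 fibroblasts with HSF1-driven luciferase reporter stressed by proteasome inhibitor MG132; luminescence from HSF1-driven luciferase expression after 8 hours of MG132 stress.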 In kind it is functional.

The target in data set [13] is Voltage-dependent T-type calcium channel subunit alpha-1H (Homo sapiens, UniProt O95180). In kind it is functional.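 Further: channel activity triggered by adding a high calcium stimulation buffer.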
In data set [14] the target is T1, Cytochrome P450 3A4. This is another data set of the same source.

Active and inactive are the calls of the source.

Chain of Cytochrome P450 2D6 (P10635 whole entry): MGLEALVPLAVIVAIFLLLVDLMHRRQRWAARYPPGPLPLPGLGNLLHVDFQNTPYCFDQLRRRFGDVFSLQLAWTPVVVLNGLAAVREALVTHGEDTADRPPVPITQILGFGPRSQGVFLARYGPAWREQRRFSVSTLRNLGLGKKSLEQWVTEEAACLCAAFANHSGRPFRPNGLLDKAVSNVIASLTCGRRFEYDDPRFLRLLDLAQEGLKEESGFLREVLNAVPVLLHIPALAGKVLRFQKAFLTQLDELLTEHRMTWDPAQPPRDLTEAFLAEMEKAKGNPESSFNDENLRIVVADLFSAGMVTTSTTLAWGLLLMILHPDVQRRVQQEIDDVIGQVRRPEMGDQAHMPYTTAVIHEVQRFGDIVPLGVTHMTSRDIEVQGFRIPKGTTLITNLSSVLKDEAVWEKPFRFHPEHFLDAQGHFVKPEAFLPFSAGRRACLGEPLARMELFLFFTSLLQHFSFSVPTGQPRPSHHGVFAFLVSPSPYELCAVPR
T1 sequence (P08684 whole entry): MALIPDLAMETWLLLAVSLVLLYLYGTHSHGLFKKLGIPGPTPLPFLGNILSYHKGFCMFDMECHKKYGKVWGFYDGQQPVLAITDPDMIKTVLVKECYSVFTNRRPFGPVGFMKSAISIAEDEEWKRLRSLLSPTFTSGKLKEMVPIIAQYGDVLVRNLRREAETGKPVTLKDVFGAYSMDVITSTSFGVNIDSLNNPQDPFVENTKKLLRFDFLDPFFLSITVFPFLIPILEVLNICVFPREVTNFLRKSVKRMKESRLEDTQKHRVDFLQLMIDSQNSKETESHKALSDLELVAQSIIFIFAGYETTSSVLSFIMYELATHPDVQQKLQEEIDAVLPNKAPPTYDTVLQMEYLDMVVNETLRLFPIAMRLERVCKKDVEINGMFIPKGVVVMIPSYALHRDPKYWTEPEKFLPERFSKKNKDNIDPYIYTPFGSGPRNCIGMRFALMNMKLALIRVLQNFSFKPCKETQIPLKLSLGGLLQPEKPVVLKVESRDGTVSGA
Chain of Cytochrome P450 2C9 (P11712 whole entry): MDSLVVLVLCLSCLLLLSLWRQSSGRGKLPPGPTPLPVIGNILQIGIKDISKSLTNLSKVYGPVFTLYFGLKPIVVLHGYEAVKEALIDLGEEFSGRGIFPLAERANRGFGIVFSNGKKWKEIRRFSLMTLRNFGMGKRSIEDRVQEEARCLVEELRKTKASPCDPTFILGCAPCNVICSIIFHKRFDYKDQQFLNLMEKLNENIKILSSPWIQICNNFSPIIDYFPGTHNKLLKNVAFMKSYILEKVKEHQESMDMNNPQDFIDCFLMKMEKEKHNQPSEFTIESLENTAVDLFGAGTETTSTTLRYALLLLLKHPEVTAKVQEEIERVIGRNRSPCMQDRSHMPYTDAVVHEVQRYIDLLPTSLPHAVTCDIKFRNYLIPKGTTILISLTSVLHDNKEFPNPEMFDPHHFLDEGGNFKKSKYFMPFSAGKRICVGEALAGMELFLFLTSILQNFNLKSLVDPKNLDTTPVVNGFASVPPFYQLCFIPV
Chain of Photoreceptor-specific nuclear receptor (Q9Y5X4 whole entry): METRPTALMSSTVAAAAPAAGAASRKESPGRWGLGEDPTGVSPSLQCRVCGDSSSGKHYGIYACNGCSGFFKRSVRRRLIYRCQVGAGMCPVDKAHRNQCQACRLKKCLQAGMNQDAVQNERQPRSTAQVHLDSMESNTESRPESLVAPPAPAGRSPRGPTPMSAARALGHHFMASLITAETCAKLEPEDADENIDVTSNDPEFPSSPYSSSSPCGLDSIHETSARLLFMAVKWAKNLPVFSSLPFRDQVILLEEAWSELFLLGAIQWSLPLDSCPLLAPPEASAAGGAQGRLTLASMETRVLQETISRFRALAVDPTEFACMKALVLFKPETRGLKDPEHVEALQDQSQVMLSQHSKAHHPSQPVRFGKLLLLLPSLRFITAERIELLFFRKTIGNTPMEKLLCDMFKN
Chain of Voltage-dependent T-type calcium channel subunit alpha-1H (O95180 whole entry): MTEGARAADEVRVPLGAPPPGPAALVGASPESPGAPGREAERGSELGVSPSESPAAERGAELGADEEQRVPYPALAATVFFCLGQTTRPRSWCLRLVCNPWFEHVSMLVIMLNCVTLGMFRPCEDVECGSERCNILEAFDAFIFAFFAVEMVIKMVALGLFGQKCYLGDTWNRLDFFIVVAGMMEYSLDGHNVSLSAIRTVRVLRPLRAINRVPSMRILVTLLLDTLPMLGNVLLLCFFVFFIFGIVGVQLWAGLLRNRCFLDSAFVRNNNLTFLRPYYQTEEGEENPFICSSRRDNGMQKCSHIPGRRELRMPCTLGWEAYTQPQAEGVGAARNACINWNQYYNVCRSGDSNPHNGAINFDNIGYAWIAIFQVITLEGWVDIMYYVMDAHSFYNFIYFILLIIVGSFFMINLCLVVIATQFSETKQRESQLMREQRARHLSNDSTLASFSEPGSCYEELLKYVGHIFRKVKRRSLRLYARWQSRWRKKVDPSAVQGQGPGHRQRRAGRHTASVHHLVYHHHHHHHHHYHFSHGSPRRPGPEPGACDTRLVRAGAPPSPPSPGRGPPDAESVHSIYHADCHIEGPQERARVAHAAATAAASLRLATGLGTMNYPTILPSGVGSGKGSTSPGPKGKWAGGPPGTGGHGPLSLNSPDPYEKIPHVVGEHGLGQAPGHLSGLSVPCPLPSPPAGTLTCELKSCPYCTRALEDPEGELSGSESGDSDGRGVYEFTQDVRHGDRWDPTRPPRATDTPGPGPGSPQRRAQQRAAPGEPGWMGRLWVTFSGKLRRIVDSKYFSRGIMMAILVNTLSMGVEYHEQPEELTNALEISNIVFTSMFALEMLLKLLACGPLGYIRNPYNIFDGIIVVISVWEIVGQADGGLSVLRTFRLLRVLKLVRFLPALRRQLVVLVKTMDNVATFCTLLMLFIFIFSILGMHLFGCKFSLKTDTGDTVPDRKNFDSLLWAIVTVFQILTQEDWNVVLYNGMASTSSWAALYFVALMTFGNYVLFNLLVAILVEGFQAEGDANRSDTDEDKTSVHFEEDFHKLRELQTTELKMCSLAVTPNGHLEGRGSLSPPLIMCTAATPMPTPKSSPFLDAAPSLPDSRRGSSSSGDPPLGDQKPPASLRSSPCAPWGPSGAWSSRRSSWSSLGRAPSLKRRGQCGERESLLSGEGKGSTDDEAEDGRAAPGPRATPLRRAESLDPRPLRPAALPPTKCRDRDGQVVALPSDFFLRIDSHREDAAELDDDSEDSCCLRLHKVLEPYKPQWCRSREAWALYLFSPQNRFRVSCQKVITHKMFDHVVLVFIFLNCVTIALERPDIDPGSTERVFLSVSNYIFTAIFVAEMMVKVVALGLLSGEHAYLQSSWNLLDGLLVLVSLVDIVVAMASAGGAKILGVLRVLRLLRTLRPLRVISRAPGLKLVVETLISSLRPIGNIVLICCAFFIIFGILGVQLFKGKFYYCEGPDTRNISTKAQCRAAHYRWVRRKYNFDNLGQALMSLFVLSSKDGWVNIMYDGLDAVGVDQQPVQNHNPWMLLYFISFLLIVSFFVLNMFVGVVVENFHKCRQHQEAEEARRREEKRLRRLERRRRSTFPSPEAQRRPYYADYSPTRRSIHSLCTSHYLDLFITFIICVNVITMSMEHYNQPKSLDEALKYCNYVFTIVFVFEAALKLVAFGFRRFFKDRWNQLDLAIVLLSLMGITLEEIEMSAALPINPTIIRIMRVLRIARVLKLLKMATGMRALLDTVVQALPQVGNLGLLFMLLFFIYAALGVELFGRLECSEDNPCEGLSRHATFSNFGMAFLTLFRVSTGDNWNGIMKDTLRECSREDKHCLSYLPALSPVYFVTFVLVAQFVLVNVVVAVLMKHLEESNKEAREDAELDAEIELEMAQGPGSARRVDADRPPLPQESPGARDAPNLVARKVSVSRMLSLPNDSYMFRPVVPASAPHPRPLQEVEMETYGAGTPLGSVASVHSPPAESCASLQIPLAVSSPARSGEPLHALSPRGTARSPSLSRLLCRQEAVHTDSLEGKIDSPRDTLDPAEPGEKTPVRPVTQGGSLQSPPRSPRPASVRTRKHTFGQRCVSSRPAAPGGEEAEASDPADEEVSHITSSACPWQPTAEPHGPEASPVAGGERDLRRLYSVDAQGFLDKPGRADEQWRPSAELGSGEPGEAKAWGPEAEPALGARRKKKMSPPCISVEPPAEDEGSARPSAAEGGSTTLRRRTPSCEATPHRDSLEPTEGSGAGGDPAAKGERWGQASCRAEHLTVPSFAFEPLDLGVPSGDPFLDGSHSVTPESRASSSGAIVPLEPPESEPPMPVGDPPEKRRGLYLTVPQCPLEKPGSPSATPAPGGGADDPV
Chain of Cytochrome P450 2C19 (P33261 whole entry): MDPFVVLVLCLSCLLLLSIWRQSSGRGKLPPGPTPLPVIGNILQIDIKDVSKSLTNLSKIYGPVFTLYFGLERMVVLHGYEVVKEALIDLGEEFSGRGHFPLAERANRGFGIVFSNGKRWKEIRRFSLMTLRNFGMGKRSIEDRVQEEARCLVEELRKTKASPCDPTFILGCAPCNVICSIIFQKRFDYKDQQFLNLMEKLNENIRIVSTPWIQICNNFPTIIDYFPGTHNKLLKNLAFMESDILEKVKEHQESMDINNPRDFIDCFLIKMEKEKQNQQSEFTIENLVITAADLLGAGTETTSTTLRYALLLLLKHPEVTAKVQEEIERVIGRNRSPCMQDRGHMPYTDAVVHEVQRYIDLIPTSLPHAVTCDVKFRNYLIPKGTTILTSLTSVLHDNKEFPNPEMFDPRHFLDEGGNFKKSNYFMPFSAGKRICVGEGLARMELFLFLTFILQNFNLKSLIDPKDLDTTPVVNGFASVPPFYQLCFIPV

One may read the AC50 as the concentration at which the activity in the assay is half-maximal. As for `CC1(C)[C@@H]2CC[C@@](C)(C2)[C@H]1OC(=O)c1ccccc1C(=O)O`, the AC50 result at Cytochrome P450 2C19 was “inconclusive”; at Cytochrome P450 3A4 [1] it was 3.98 µM (inconclusive); on Cytochrome P450 2C9, 3.16 µM (inconclusive); on Cytochrome P450 2D6, “inconclusive”.

For orientation: IC50 means the concentration at which inhibition is half-maximal. As for `Cc1nc2ncnn2c(N2CCN(c3cccc(C(F)(F)F)c3)CC2)c1C`, the IC50 in [2] was 0.838 µM (active); in data set [3] it was 2.94 µM (active); in [4] it was 3.77 µM (active).

In the case of `COc1cc2c(cc1OC)C1=C(C#N)COCN1CC2`, the AC50 in data set [5] was 0.644 µM (active).

For the compound `O=C(COc1ccc2ccccc2c1)N1CCN(Cc2c[nH]c3ccccc23)CC1`, in the data set on INS1, the AC50 is 2.58 µM (active). Further, the IC50 in data set [3] was 4.5 µM (active); in data set [4], 3.26 µM (active).

`C/C(=N/NC(=O)c1ccccc1)c1ccc(OCC(=O)O)cc1`: the IC50 in data set [6], in data set [7], in data set [8], in [9], in data set [10] and in data set [11] was > 100 µM (inactive) throughout.

By EC50 is commonly meant the concentration giving half of the maximal effect. Consider `O=S(=O)(Cc1cc(Oc2ccccc2)nc(-c2ccccc2)n1)c1ccccc1`, for which the EC50 was > 195 µM (not active) in data set [12] and 19.2 µM (active) in [13]. For the same compound, the AC50 entry at Cytochrome P450 3A4 [14] and at Cytochrome P450 2D6 was “inconclusive” each time.
